Like-named read-outs stand apart in the source and are kept apart here.
Legend:
Kupffer cells [1] = test: Zymosan-induced respiratory burst (ROS) in Kupffer cells, luminol- or lucigenin-enhanced chemiluminescence
Description: Liver cell isolation. Liver cells were isolated from female Sprague Dawley rats (230-250 g). Livers were perfused with collagenase as described by Neufeld (Neufeld DS (1997) Isolation of rat liver hepatocytes. Methods in Molecular Biology, Vol 75: Basic Cell Culture Protocols 75: 145-151). Subsequently, liver cells were purified by a combined differential and Percoll gradient centrifugation using a Sorvall HS4 swinging bucket rotor (Smedsrod B, Pertoft H (1985) Preparation of pure hepatocytes and reticuloendothelial cells in high yield from a single rat liver by means of Percoll centrifugation and selective adherence. J.Leukocyte Biol 38: 213-230). After filtration through a 100-μm mesh polypropylene filter (Spectra/Mesh; Spectrum, Laguna Hills, Calif.), the cell suspension was centrifuged for 5 minutes at 50 g resulting in a hepatocyte-enriched pellet and a nonparenchymal cell-enriched supernatant. The nonparenchymal cell-containing supernatant was saved. The pellet was resuspended in ice-cold phosphate-buffered saline (PBS) and mixed in an equal volume of PBS-buffered isotonic Percoll. The gradient was centrifuged for 10 minutes at 50 g. The pellet was resuspended in PBS, centrifuged again, and the final pellet was resuspended in RPMI 1640 medium containing 10% FCS. The nonparenchymal cell-enriched supernatants were centrifuged for 15 minutes at 900 g. The pellet was resuspended in ice-cold PBS, layered over a 2-cushion Percoll gradient (Smedsrod B, Pertoft H (1985) Preparation of pure hepatocytes and reticuloendothelial cells in high yield from a single rat liver by means of Percoll centrifugation and selective adherence. J.Leukocyte Biol 38: 213-230) and centrifuged for 30 minutes at 900 g. The intermediate zone, containing mostly liver endothelial cells, and the bottom cushion, containing mostly Kupffer cells, were saved, mixed with PBS, and centrifuged for 15 minutes at 900 g. The pellet was resuspended in PBS with 1% FCS and the cells further separated into various fractions by centrifugal counterflow elutriation (Knook D L, Sleyster E C (1976) Separation of Kupffer and endothelial cells of the rat liver by centrifugal elutriation. Exp Cell Res 99: 444-449) using the Beckman Coulter JE-5.0 elutriator rotor supplied with a Sanderson chamber (Beckman Coulter, Palo Alto, Calif. USA). The cell suspension was introduced into the elutriator at a flow rate of 12 ml/min, and the elutriator speed set to 3250 rpm. Endothelial cells were obtained at a 32 ml/min flow rate, whereas Kupffer cells were collected at 70 ml/min. The cells were centrifuged at 200 g and resuspended in RPMI-1640 medium containing 10% fetal calf serum. The cell purity and viability were above 95% as determined by peroxidase stain and trypan blue exclusion.
Cell culture. Kupffer cells were seeded into 96-well microtiter plates (0.25×10^6 cells/well) or 24-well plates (1.0×10^6 cells/well). Endothelial cells were plated on 24-well plates (1.5×10^6 cells/well), which had been previously coated with type I collagen (Sigma, St. Louis, Mo.). […] All types of cells were cultivated in RPMI 1640 medium supplemented with 10% fetal calf serum (FCS), 25 mM HEPES, and antibiotics (100 U/ml penicillin G and 100 μg/ml streptomycin sulfate) at 37° C. in 5% CO2. Nonadherent cells were removed after 1 h by replacing medium, and the cells were cultured in the same medium for 18 h and then in RPMI-1640 without FCS for 6 h.
Cell treatment. To study the effect of CSP on cell signaling, the cells were incubated with different concentration of CSP for 0-90 min at 37° C. in 5% CO2. Before use, CSP was dialyzed extensively with 150 mM NaCl, 10 mM HEPES, pH 7.4 and diluted in culture medium.

Kupffer cells [2] = test: cAMP radioimmunoassay, intracellular cAMP in Kupffer cells; type: cell-based, rat
Description: Liver cell isolation. […] The nonparenchymal cell-containing supernatant was saved.
Cell culture. […] HepG2 cells were used on day 3 after plating.
Cell treatment. […] Role of calcium and cyclic AMP. […] J Immunol 174: 2981-2989). […] IBMX was dissolved in dimethyl sulphoxide (DMSO).
cAMP radioimmunoassay. For cAMP determination, liver cell cultures were incubated in culture medium without FCS at 37° C. for 0-90 min. The cultures were then placed on ice, and the reaction was stopped by aspiration of the incubation medium followed by the addition of 1 ml of ice cold 65% (vol/vol) ethanol. The cells were scraped into Eppendorf tubes and centrifuged at 10000 g for 10 min at 4° C. The supernatants were dried in SC110 Speedvac Concentrator (Savant, Farmingdale, N.Y.) at room temperature, and the dried extracts were dissolved in assay buffer for cAMP determination with cAMP [^125I] Direct Biotrak Assay from Amersham Biosciences (Piscataway, N.J.), according to the instructions of the manufacturer. Samples were analyzed with a Beckman LS 6000 scintillation counter. The cAMP level in each sample was normalized to the protein concentration and expressed as fmol/μg of protein. Ethanol-precipitated cell pellets were diluted with 0.15 M NaOH and the protein concentration was measured with the Micro BCA Protein Assay Kit (Pierce Chemical Co., Rockford, Ill.) according to manufacturer's instructions.

## CCCC(=O)Nc1ncnc2c1ncn2[C@@H]1O[C@@H]2COP(=O)(O)O[C@H]2[C@H]1O [6-MB-cAMP, N6-monobutyryladenosine-3′,5′-cAMP]
Kupffer cells [1]; 3 mM, pretreated 40 minutes, luminol-enhanced chemiluminescence
  effect on zymosan-induced ROS formation: had no effect

## CO[C@@H]1[C@@H]2OP(=O)(O)OC[C@H]2O[C@H]1n1c(Sc2ccc(Cl)cc2)nc2c(N)ncnc21 [8-CPT-2-Me-cAMP, 8-[4-chlorophenylthio]-2′-O-methyladenosine-3′,5′-cAMP]
Kupffer cells [1]
  effect on zymosan-induced ROS formation: inhibited

## [O-][Cl+2]([O-])O [Chlorate, sodium chlorate, reference compound]
Kupffer cells [2]; Rattus norvegicus, read-out: inhibition of the CSP-induced generation of cAMP
  inhibition at 20000 µM: 20%

## Cl.Cl.O=S(=O)(NCCNCC=Cc1ccc(Br)cc1)c1cccc2cnccc12 [H-89, N-[2-(p-Bromocinnamylamino)ethyl]-5-isoquinolinesulfonamide dihydrochloride]
Kupffer cells [1]
  effect on the CSP-mediated inhibition of the respiratory burst: failed to prevent

## CC(C)Cn1c(=O)n(C)c(=O)c2[nH]cnc21 [IBMX, 3-isobutyl-1 methylxanthine, reference compound]
Kupffer cells [2]; added 10 min before 50 nM CSP (30 min), RAP 500 nM
  effect on the CSP-induced generation of cAMP: did not reduce
Kupffer cells [1]; Rattus norvegicus, read-out: inhibition of the zymosan-induced respiratory burst
  inhibition at 1000 µM: 67%

## C[C@]12N[C@H](Cc3ccccc31)c1ccccc12 [MK-801]
Kupffer cells [1]
  effect on the CSP-mediated inhibition of the respiratory burst: had no effect

## Nc1ncnc2c1ncn2C1CCCO1 (stereo not drawn) [SQ 22,536, 9-(Tetrahydro-2-furanyl)-9H-purin-6-amine]
Kupffer cells [1]; 100 μM SQ 22,536 with P. yoelii sporozoites
  effect on the inhibition of the zymosan-induced respiratory burst by sporozoites: abrogated the inhibitory effect

## CCCC(=O)Nc1ncnc2c1ncn2[C@@H]1O[C@@H]2COP(=O)(O)O[C@H]2[C@H]1OC(=O)CCC [db-cAMP, dibutyryl cAMP]
Kupffer cells [1]; 1 mM IBMX or 1 mM db-cAMP, luminol-enhanced chemiluminescence
  inhibition of the zymosan-induced respiratory burst: 22%

Source: patent publication US8865657B2, “Compositions and methods for inactivating or suppressing inflammatory cells” (New York University, priority 2005, dated 2014)
